Source: US9334246B2, “Substituted triazines for malaria treatment and chemoprophylaxis” (The United States of America, as represented by the …, priority 2013, dated 2016)

How the values were obtained:
[1] = test system: P. falciparum D6; test: Malaria SYBR Green Fluorescence Assay, D6 strain; format: cell-based, Plasmodium falciparum; conditions: for D6: SYBR Green Assay
[2] = test system: P. falciparum W2; test: Malaria SYBR Green Fluorescence Assay, W2 strain; format: cell-based, Plasmodium falciparum; conditions: for W2: SYBR Green Assay
[3] = test system: P. falciparum C235; test: Malaria SYBR Green Fluorescence Assay, C235 strain; format: cell-based, Plasmodium falciparum; conditions: for C235: SYBR Green Assay
[4] = test system: P. berghei; test: Thompson Test, in vivo mouse malaria assay; parameters: species or system mice (ICR strain)
[5] = target: hERG potassium ion channel (Homo sapiens, UniProt Q12809); test: hERG patch clamp assay (% inhibition at 10 μM); conditions: for hERG (% inhibition): 10 μM
[6] = (160 × 3): 160 mg/kg for 3 days
[7] = % inhibition at 10 μM, patch clamp

hERG potassium ion channel, sequence (Q12809 whole entry): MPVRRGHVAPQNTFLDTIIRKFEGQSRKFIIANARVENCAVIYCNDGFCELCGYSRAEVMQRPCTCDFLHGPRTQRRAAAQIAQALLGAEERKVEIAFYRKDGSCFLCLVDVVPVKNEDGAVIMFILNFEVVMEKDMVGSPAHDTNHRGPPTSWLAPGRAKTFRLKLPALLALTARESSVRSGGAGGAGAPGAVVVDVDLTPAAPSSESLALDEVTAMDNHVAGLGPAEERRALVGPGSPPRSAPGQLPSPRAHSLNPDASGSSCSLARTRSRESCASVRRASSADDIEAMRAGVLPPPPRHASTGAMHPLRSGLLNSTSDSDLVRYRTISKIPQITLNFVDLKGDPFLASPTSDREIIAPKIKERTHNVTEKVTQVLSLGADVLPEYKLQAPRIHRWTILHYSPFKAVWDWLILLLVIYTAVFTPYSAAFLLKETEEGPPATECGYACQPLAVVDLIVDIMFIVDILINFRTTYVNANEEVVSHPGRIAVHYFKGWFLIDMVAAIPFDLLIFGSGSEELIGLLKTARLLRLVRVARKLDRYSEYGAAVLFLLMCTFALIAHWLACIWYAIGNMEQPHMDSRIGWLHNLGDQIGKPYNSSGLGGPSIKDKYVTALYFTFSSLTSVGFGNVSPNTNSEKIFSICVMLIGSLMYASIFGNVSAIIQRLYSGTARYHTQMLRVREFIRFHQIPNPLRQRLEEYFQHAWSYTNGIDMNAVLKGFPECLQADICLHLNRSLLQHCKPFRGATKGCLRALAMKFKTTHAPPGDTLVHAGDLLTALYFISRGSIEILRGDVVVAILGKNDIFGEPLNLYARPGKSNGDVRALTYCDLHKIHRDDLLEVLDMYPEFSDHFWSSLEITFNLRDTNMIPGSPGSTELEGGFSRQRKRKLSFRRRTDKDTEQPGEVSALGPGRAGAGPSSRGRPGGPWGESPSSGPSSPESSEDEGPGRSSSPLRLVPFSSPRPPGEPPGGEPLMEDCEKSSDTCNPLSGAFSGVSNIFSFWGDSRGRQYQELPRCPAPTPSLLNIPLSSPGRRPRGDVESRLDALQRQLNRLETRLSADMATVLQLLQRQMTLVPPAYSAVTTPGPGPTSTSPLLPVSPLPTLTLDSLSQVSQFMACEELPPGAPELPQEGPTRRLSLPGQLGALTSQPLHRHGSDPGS

Molecule | D6 [1] [ng/mL] | W2 [2] [ng/mL] | C235 [3] [ng/mL] | In vivo Results Thompson Assay (n/N Cures or Suppressive) ([4]; (80 × 3): 80 mg/kg for 3 days) | In vivo Results Thompson Assay (n/N Cures or Suppressive) [4, 6] | hERG ([5]; hERG activity as % inhibition) [%] | D6 (SYBR Green Assay IC50) [1] [ng/mL] | W2 (SYBR Green Assay IC50) [2] [ng/mL] | C235 (SYBR Green Assay IC50) [3] [ng/mL] | hERG (% inhibition) [5] [%] | In vivo Results Thompson Assay (n/N Cures or Suppressive) ([4]; (40 × 3): 40 mg/kg for 3 days) | hERG [5, 7] [%]
ClC(Cl)(Cl)c1ccc(cc1)c2nc(nc(n2)C(Cl)(Cl)Cl)N3CC4CC3CN4 [Compound 722] | 9 | 5 | 12 | Suppressive | 5/5 | 14 | – | – | – | – | – | –
ClC(Cl)(Cl)c1nc(Nc2ccncc2)nc(-c2ccc3ccccc3c2)n1 [Compound 235] | 14 | 8 | 10 | (80 × 3) Suppressive | – | – | – | – | – | – | – | –
CCC(N)(CC)CNc1nc(-c2ccc(S(C)(=O)=O)cc2)nc(C(Cl)(Cl)Cl)n1 [Compound 365] | – | – | – | (80 × 3) Suppressive | – | – | 5 | 5 | 10 | 69 | – | –
NC1CCN(CC1)c2nc(nc(n2)C(Cl)(Cl)Cl)c3ccc(cc3)C(Cl)(Cl)Cl [Compound 743] | 22 | 16 | 14 | (80 × 3) 3/5 Cures; (40 × 3) | – | 15 | – | – | – | – | Suppressive | –
CN1CCCN(c2nc(-c3ccc(Cl)c(Cl)c3)nc(C(Cl)(Cl)Cl)n2)CC1 [Compound 113] | 33 | 23 | 35 | Suppressive | 4/5 | – | – | – | – | – | – | 64
Cc1ccc(cc1)c2nc(nc(n2)C(Cl)(Cl)Cl)N3CC4CC3CN4 [Compound 719] | 96 | 68 | 114 | (80 × 3) Suppressive; (160 × 3) | Suppressive | 10 | – | – | – | – | – | –
CC(C)(N)CNc1nc(-c2cccc(C(F)(F)F)c2)nc(C(Cl)(Cl)Cl)n1 [Compound 214] | 19 | 11 | 10 | 5/5 | – | – | – | – | – | – | 2/5 | 42
CCN1CCC(CC1)C(C)Nc2nc(Nc3ccc(Cl)c(Cl)c3)nc(n2)C(Cl)(Cl)Cl [Compound 643] | – | – | – | (80 × 3) 2/5 Cures | – | – | 47 | 33 | 48 | 100 | – | –
CC(C)(C)c1ccc(-c2nc(NCC3(N)CCOCC3)nc(C(Cl)(Cl)Cl)n2)cc1 [Compound 314] | 7 | 2 | 16 | (80 × 3) Suppressive | – | – | – | – | – | – | – | 5
NC1(CNC2═NC(═NC(═N2)C2═CC═C(C═C2)C(Cl)(Cl)Cl)C(Cl)(Cl)Cl)CCCCC1 [Compound 666] | 3 | 2 | 5 | (80 × 3) 2/4 Cures | – | – | – | – | – | – | – | –
CC(C)CN1CCC(Nc2nc(-c3ccc(C(C)(C)C)cc3)nc(C(Cl)(Cl)Cl)n2)CC1 [Compound 694, CC(C)CN1CCC(CC1)NC1═NC(═NC(═N1)C(Cl)(Cl)Cl)C1═CC═C(C═C1)C(C)(C)C] | 24 | 23 | 37 | (80 × 3) Suppressive | – | – | – | – | – | – | – | –
ClC(Cl)(Cl)c1ccc(-c2nc(NCCN3CCCC3)nc(C(Cl)(Cl)Cl)n2)cc1 [Compound 57] | 10 | 6 | 22 | Suppressive | 5/5 | – | – | – | – | – | – | 25
NC1(CNc2nc(-c3ccccc3)nc(C(Cl)(Cl)Cl)n2)CCOCC1 [Compound 313] | 7 | 2 | 14 | (80 × 3) 1/5 Cures | – | – | – | – | – | – | – | –
CS(=O)(=O)c1ccc(-c2nc(N3CC4CC3CN4)nc(C(Cl)(Cl)Cl)n2)cc1 (centres unmarked) [Compound 724, CS(═O)(═O)c1ccc(cc1)c2nc(nc(n2)C(Cl)(Cl)Cl)N3CC4CC3CN4] | 106 | 71 | 110 | (80 × 3) Suppressive | – | 70 | – | – | – | – | – | –
CN1CCN(CC1)c2ccc(Nc3nc(NCCN4CCCC4)nc(n3)C(Cl)(Cl)Cl)cc2 [Compound 733] | 117 | 36 | 87 | – | – | 55 | – | – | – | – | – | –
CCC(N)(CC)CNc1nc(-c2ccc(-c3ccccc3)cc2)nc(C(Cl)(Cl)Cl)n1 [Cmpd 364] | – | – | – | – | – | – | 3 | 4 | 6 | 25 | – | –
